Test results from patent publication US12031137B2, “Compositions comprising SASP modulators and senescence attenuators and uses thereof for modulating cellular senescence” (RSEM, LIMITED PARTNERSHIP, priority 2016, dated 2024).

How the values were obtained:
[1] = tested on: mouse model of oxygen-induced retinopathy (OIR); assay: SA-β-gal staining of retinas in oxygen-induced retinopathy (OIR) after intravitreal injection; assay type: in vivo; conditions: single intravitreal injection at P12, vs vehicle
From the text: (§1) O2-induced retinopathy. Mouse pups from different strains (C57Bl/6 WT, LyzM-Cre, LysM-Cre/IRE1^fl/fl, LysM-Cre/IRE1^+/+, IRE1^fl/fl and LysM-Cre/ROSA26EYFP^fl/fl), and their fostering mothers (CD1, Charles River) were exposed to 75% 02 from postnatal day 7 (P7) to day 12 and returned to room air. This model serves as a proxy to human ocular neovascular diseases such as ROP and diabetic retinopathy characterized by a late phase of destructive pathological angiogenesis (72, 73). Upon return to room air, hypoxia-driven neovascularization (NV) develops from P14 onwards (27). We enucleated eyes at different time points and dissected the retinas for mRNA, protein assays or flatmounting.
(§2) Senescence-associated β-galactosidase (SA-β-gal) assay. Senescence-associated β-galactosidase assays were carried out as described previously (57, 75)
Quantification of SA-β-gal in vivo. Senescence-associated β-galactosidase staining in flatmount retinas or sagittal eye sections were analyzed using Image J software as described in FIG. 14.
(§3) Intravitreal injections. P2, P10 or P12 C57BL/6 pups were anesthetized with 3.0% isoflurane and injected in the vitreous chamber with 0.5 μL of lentivirus (see “Lentivirus production”), recombinant SEMA3A (100 ng/μL), metformin (10 μg/μL) or Aflibercept (10 μg/uL) using a 10-μL Hamilton syringe fitted with a […] glass capillary tip. Approximately 254±11.0 ng/μL of lentivirus Sh_GFP and 323.3±15.3 ng/μL containing Sh_Sema3a, Lv.Cre (15.0 ng/mL), Lv.GFP (15.0 ng/mL) was injected. Virus titers were assessed with the p24 ELISA kit (ZeptoMetrix). The titers of the lentiviruses used were (in ng p24) LV.Sh_RNA IRE1α (8.52 ng/mL), and LV.Sh_RNA.GFP (8.47 ng/mL).

[2] = Mouse weight gain on systemic administration of metformin; assay type: in vivo
[3] = tested on: mouse model of oxygen-induced retinopathy (OIR); assay: Avascular area and pre-retinal neovascularization in OIR flatmount retinas; assay type: in vivo
[4] = tested on: mouse model of oxygen-induced retinopathy (OIR); assay: Immunoblot and RT-qPCR of OIR retinas after intravitreal injection; assay type: in vivo
From the text: as §1
(§4) Semi-quantitative and Real-time PCR analysis. We isolated RNA using the GenElute™ Mammalian Total RNA Miniprep Kit (Sigma) and performed a digestion with DNase I to prevent amplification of genomic DNA. We reversed transcribed the RNA using M-MLV reverse transcriptase and analyzed gene expression using SybrGreen™ in an ABI Biosystems Real-Time PCR machine. β-actin was used as a reference gene. […] We investigated the splicing of XBP-1 by incubating the XBP-1 semi-quantitative PCR product with 0.4 U/μL of PstI enzyme for 5 hrs at 37° C. followed by separation on 2.5% agarose gel.
as §3
(§5) Western blotting. We enucleated eyes at varying time points and rapidly dissected and homogenized retinas for assessment of retinal protein levels. Protein concentration from retinal homogenate and cell lysates were assessed by BCA assay (Sigma), and then 30 μg of protein analyzed for each condition by standard SDS-PAGE technique.

[5] = tested on: mouse model of oxygen-induced retinopathy (OIR); assay: TUNEL staining of OIR retinas; assay type: in vivo; conditions: P14 OIR, intravitreal, vs vehicle-treated retinas
From the text: as §1, §3

retina = assay: Intravitreal injection of recombinant SEMA3A in mouse pups, senescence markers; assay type: in vivo; conditions: retina harvested at P5
From the text: FIG. 3A: Western blot analysis of SEMA3A protein expression level during OIR compared to normoxic controls at P10, P14, P17 and P21. β-actin is used as a loading control. FIG. 3B: Immunoblot analysis of SEMA3A protein levels during Ras-induced senescence in Mouse Embryonic Fibroblasts (MEFs). Cell lysates from MEFs retrovirally transduced with H-RasV12 oncogene or control empty vector harvested 14 days post-selection. FIG. 3C: SEMA3A transcript levels in human normal diploid fibroblasts (IMR90) retrovirally transduced with empty vector, MEK1 alone or MEK and human papillomavirus oncoproteins E6 and E7. […] FIG. 3I: HRMEC, retinal neurons (661W) and J774 (macrophages-like cells) stimulated with recombinant SEMA3A (100 ng/ml) or vehicle (CT) for 7 days, stained for SA-β-gal and quantification in FIG. 3J. […] Senescent cells were stained with SA-β-gal (right) and the level of secreted SEMA3A (S3A) protein in CM was evaluated by immunoblot (left). […] Senescence was evaluated after 7 days of treatment. FIG. 3M: Quantification of percentage of SA-β-gal positive cells treated as in (J). […]
Intravitreal injections. […] Virus titers were assessed with the p24 ELISA kit (ZeptoMetrix). […]
Western blotting. […] Protein concentration from retinal homogenate and cell lysates were assessed by BCA assay (Sigma), and then 30 μg of protein analyzed for each condition by standard SDS-PAGE technique.

retinal neurons (661W) = assay: SEMA3A exposure of 661W retinal neuron cell line (SA-β-gal); assay type: cell-based; conditions: 100 ng/ml, 7 days
Method: as §2
Preparation of conditioned media (CM). Human retinal microvascular endothelial cells (HRMECs), retinal neuron 661W photoreceptor cells and Mouse macrophages ([…]), H2O2 (150 μM for 2 h) 48 h after transfection or not as indicated in each experiment. Supernatants were centrifuged and filtered and then frozen for subsequent use. For Western Blot on CM was concentrated using ultra centrifugal amicon filter unit from Millipore.

[6] = tested on: Human retinal microvascular endothelial cells (HRMECs); assay: SEMA3A exposure of HRMECs (cell cycle FACS, ECIS, SA-β-gal); assay type: cell-based
Method: Flow Cytometry Analysis. Human retinal microvascular endothelial cells (HRMEC) cell cycle analysis (P1 biolegend) were performed according to the manufacturer's instructions and as previously reported (43). Briefly, HRMEC (1×10^6) were seeded in 6-well plates and incubated for 7 days with SEMA3A, 100 and 500 ng/ml. The samples were analyzed by flow cytometry. FACS was performed on a LSRII (BD Biosciences) device and data were analysed using FlowJo software (version 7.6.5).
Electric Cell-substrate Impedance Sensing (ECIS) Proliferation assay. Real-time analysis of trans-endothelial electric resistance was performed by plating 5000 HRMECs/ml were seeded onto 8W10E+ standard 8-well arrays (Applied BioPhysics, NY). Cells were allowed to grow leading to a capacitance of less than 10 nF. Cells were starved for 5 Hours with endothelial basal media (EBM-2, Lonza) and then treated with 100 ng/ml SEMA3A or vehicle (EBM-2) for 120 h and impedance was measured using an ECIS Zθ impedance instrument (Applied BioPhysics, NY). Measurements were taken for 120 h post treatment.
as §2
(§6) Preparation of conditioned media (CM). Human retinal microvascular endothelial cells (HRMECs), retinal neuron 661W photoreceptor cells and Mouse macrophages (J774A.1 cell line) were incubated for 7 days with recombinant SEMA3A ([…]), H2O2 (150 μM for 2 h) 48 h after transfection or not as indicated in each experiment. Supernatants were centrifuged and filtered and then frozen for subsequent use. For Western Blot on CM was concentrated using ultra centrifugal amicon filter unit from Millipore.

[7] = tested on: J774 macrophage/monocyte cells; assay: SEMA3A exposure of J774 macrophage/monocyte cells (SA-β-gal, immunoblot, RT-qPCR, γH2AX); assay type: cell-based, mouse
Method: as §4
For Protein localization, flatmounted retinas were incubated with different antibodies as indicated. For in vitro IF, cultured cells were plated on 0.1% gelatin-coated coverslips and serum-starved overnight and stimulated for 7 days with SEMA3A (100 ng/ml). Cells were washed briefly with cold PBS and fixed for 20 minutes in PBS containing 3.5% paraformaldehyde. Cells were rinsed with PBS and permeabilized with 0.3% Triton in PBS for 5 minutes. Fixed cells were blocked with 1% BSA and then incubated for 1 hour with primary antibodies in 0.1% BSA in PBS. Bound primary antibodies were visualized after 1 hour of incubation using Alexa Fluor secondary antibody. Coverslips were mounted using Fluoromount (Sigma-Aldrich) and analyzed by confocal microscope (Olympus confocal FV1000). Samples were viewed with a ×63/1.4 NA oil or ×30 objective. Images were assembled using Photoshop CS4 (Adobe Systems). For all antibodies used for immunohistochemistry, see Table 8.
as §2, §6, §5

[8] = intravitreal injection at P12, P14 OIR retinas
[9] = HRMECs, 7 days, 100 and 500 ng/ml, FACS

Molecule: CN(C)C(=N)NC(=N)N [metformin, N,N-Dimethylimidodicarbonimidic diamide]
- SA-β-gal staining at P14 OIR [1]: significant decrease
- SA-β-gal staining at P17 OIR (cellular senescence) [1]: significant decrease
- mouse weight gain [2]: interfered with mouse weight gain
- benefits on pathological retinal angiogenesis ([3]; administered via systemic paths): did not show any benefits
- enhancement of vascular regeneration ([3]; intravitreal injection at P12, assessed at P17 OIR): more than 2 fold
- pathological neovascularization at P17 OIR ([3]; intravitreal injection at P12, vs vehicle): by half
- Components of the VEGF signaling pathway (Vegf-a, Vegf-c, Vegfr-1, Vegfr-2 RT-qPCR) [4, 8]: not affected
- IL6, Cdkn1a, Cdkn2a and Sema3A by RT-qPCR [4, 8]: significant decrease
- NF-κB and IRE1α activation in retinas (immunoblot) ([4]; single intravitreal injection at P12, OIR P14 and P17): attenuated
- apoptosis in cells of the GCL (TUNEL) [5]: without aggravating apoptosis
- number of apoptotic cells in the INL layer (TUNEL) [5]: lowered

B1: SEMA3A: Recombinant human Semaphorin 3A (from murine myeloma cell line, NS0) (R&D Systems) (protein)
chain: YQNGKNNVPRLKLSYKEMLESNNVITFNGLANSSSYHTFLLDEERSRLYVGAKDHIFSFDLVNIKDFQKIVWPVSYTRRDECKWAGKDILKECANFIKVLKAYNQTHLYACGTGAFHPICTYIEIGHHPEDNIFKLENSHFENGRGKSPYDPKLLTASLLIDGELYSGTAADFMGRDFAIFRTLGHHHPIRTEQHDSRWLNDPKFISAHLISESDNPEDDKVYFFFRENAIDGEHSGKATHARIGQICKNDFGGHRSLVNKWTTFLKARLICSVPGPNGIDTHFDELQDVFLMNFKDPKNPVVYGVFTTSSNIFKGSAVCMYSMSDVRRVFLGPYAHRDGPNYQWVPYQGRVPYPRPGTCPSKTFGGFDSTKDLPDDVITFARSHPAMYNPVFPMNNRPIVIKTDVNYQFTQIVVDRVDAEDGQYDVMFIGTDVGTVLKVVSIPKETWYDLEEVLLEEMTVFREPTAISAMELSTKQQQLYIGSTAGVAQLPLHRCDIYGKACAECCLARDPYCAWDGSACSRYFPTAKRRTRRQDIRNGDPLTHCSDLHHDNHHGHSPEERIIYGVENSSTFLECSPKSQRALVYWQFQRRNEERKEEIRVDDHIIRTDQGLLLRSLQQKDSGNYLCHAVEHGFIQTLLKVTLEVIDTEHLEELLHKDDDGDGSKTKEMSNSMTPSQKVWYRDFMQLINHPNLNTMDEFCEQVWKRDRKQRRQRPGHTPGNSNKWKHLQENKKGRNRRTHEFERAPRSV
modifications: left off: a dimerising Fc or GST
- SA-β-gal staining of retina sagittal cryosections (retina): marked augmentation
- p53, p16INK4a and IRE1α in retina (immunoblot) (retina): marked increase
- senescence (SA-β-gal) in 661W retinal neuron cell line (retinal neurons (661W)): induces senescence
- senescence (SA-β-gal) in HRMECs ([6]; 100 ng/ml, 7 days): induces senescence
- normal endothelial cell growth (ECIS) ([6]; HRMECs, 100 ng/ml): stunted
- S phase [6, 9]: significantly reducing
- cell cycle arrest in G0/G1 [6, 9]: increased
- senescence (SA-β-gal) in macrophage-like J774 cells ([7]; 100 ng/ml, 7 days): induces senescence
- expression of Pai1, Il6, Il1β, TGF-β and Tp53 (RT-qPCR) ([7]; J774, 100 ng/mL, 7 days): drove expression
- senescence-associated DNA-damage foci expressing γH2AX ([7]; J774, 100 ng/mL, 7 days): promoted
- IRE1α activation (p-IRE1α S724 immunoblot) ([7]; J774, sustained exposure, 100 ng/mL, 3 or 7 days): activated
